Counter-ions that a name gives are not always drawn. Like-named read-outs stand apart in the source and are kept apart here. Blank lines part the entries; values can stand above or below the molecule they belong to.
Molecular target: T1, human Nav1.8/b3 (Homo sapiens, UniProt Q9Y5Y9)
T1 construct: expressed in transfected cells; host or cells: CHO
Test: Compound Profiling Human NaV1.8/β3 Cell Line—SyncroPatch384PE Assay (automated patch clamp, stably transfected CHO cells)
Type: cell-based
Details: Nav1.8/b3 CHO cells

[1] = P1 (IC50, resting state block), P1 measurement, resting state block, holding potential −120 mV, first set of compounds
[2] = P2 (IC50, inactivated state block), P2 measurement, inactivated state block, inactivation step −35 mV 10 sec, first set of compounds
[3] = P1 (IC50, resting state block), P1 measurement, resting state block, holding potential −120 mV, fourth set of compounds
[4] = P2 (IC50, inactivated state block), P2 measurement, inactivated state block, inactivation step −35 mV 10 sec, fourth set of compounds
[5] = P1 measurement, resting state block, holding potential −120 mV, third set of compounds, read-out: P1 (IC50, resting state block)
[6] = P2 measurement, inactivated state block, inactivation step −35 mV 10 sec, third set of compounds, read-out: P2 (IC50, inactivated state block)
[7] = P1 (IC50, resting state block), P1 measurement, resting state block, holding potential −120 mV, third set of compounds
[8] = P2 (IC50, inactivated state block), P2 measurement, inactivated state block, inactivation step −35 mV 10 sec, third set of compounds
[9] = P1 (IC50, resting state block), P1 measurement, resting state block, holding potential −120 mV, second set of compounds
[10] = P2 (IC50, inactivated state block), P2 measurement, inactivated state block, inactivation step −35 mV 10 sec, second set of compounds

T1 sequence (Q9Y5Y9 whole entry): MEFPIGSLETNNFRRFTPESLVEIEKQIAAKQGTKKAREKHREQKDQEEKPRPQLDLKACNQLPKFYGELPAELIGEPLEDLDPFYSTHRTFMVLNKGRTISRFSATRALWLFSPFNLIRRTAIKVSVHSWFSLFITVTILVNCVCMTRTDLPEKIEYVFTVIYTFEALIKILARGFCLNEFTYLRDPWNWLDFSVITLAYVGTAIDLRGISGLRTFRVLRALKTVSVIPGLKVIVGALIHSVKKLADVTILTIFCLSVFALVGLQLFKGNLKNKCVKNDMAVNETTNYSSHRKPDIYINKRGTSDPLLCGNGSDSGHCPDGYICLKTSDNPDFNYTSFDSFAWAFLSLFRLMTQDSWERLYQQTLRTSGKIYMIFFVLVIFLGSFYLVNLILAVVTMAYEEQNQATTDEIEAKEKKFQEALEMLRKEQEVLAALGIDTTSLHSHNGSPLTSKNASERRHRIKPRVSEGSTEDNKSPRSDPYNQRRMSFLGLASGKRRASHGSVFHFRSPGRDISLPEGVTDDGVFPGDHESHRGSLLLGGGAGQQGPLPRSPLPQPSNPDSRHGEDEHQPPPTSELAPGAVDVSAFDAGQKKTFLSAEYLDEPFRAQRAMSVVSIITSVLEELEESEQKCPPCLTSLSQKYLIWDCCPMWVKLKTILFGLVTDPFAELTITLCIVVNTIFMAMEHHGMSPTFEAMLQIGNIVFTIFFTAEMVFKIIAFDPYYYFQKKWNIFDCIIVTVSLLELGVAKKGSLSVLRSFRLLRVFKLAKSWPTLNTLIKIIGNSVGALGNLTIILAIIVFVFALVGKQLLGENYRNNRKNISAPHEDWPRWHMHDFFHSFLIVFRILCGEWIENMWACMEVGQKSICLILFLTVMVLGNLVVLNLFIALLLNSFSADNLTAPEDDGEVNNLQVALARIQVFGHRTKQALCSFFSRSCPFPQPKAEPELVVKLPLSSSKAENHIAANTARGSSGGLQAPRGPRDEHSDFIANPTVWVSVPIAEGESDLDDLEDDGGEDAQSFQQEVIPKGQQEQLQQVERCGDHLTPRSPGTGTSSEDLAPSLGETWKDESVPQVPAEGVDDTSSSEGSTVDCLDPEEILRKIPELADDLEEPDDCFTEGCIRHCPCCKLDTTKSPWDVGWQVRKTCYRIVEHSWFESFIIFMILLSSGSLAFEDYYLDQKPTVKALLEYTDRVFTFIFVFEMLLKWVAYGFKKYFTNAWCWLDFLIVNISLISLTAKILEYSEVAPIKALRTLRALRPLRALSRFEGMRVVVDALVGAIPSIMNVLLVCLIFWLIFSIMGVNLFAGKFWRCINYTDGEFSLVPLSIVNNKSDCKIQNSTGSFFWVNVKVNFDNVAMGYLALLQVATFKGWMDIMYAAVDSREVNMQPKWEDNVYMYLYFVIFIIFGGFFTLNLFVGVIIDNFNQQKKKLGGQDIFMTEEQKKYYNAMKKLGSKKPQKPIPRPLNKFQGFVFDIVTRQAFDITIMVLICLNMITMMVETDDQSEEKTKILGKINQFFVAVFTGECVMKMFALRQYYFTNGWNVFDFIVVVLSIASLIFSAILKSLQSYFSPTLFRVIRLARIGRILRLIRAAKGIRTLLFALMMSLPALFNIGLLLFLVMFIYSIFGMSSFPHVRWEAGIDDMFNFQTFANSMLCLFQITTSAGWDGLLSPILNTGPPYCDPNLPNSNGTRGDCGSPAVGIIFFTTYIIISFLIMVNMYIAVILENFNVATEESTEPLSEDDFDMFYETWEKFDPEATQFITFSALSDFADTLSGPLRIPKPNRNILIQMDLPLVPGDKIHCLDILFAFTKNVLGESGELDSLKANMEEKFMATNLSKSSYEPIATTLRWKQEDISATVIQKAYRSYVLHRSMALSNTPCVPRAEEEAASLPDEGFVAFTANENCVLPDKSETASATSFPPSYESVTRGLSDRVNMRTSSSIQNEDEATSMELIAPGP
T1 sequence (Q9NY72 23-215 partner): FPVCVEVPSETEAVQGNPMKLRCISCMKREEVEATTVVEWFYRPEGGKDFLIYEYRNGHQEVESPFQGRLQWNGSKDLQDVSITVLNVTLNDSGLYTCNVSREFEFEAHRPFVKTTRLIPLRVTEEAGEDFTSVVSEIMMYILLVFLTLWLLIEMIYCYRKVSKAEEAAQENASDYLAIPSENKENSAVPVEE

Compound: Cc1nc(F)ccc1Oc1cc(C(F)(F)F)c(Cl)c(F)c1C(=O)NC12CC(C(N)=O)(C1)C2 [Example 47A]
IC50 [1]: > 200 nM
IC50 [2]: > 200 nM

Compound: Cc1nc(F)ccc1Oc1ncc(C(F)(F)F)c(C)c1C(=O)Nc1cccc(S(C)(=O)=NCC2(N)CC2)c1 (stereo not shown) [Example 92C]
IC50 [5]: < 5 nM
IC50 [6]: < 5 nM

Compound: COc1c(Oc2cc(C(F)(F)F)nnc2C(=O)Nc2cccc(S(C)(=N)=O)c2)ccc(F)c1F (stereo not shown) [Example 31C, 4-(3,4-difluoro-2-methoxyphenoxy)-N-(3-(S-methylsulfonimidoyl)phenyl)-6-(trifluoromethyl)pyridazine-3-carboxamide]
IC50 [7]: 100 to 200 nM
IC50 [8]: 100 to 200 nM

Compound: Cc1nc(F)ccc1Oc1ccc(C(F)(F)F)c(F)c1C(=O)Nc1cccc([S@@](C)(=O)=NC(=O)[C@@H]2CCCN2)c1 [Example 21B, (S)—N—((R)-(3-(2-fluoro-6-((6-fluoro-2-methylpyridin-3-yl)oxy)-3-(trifluoromethyl)benzamido)phenyl)(methyl)(oxo)-λ^6-sulfaneylidene)pyrrolidine-2-carboxamide]
IC50 [9]: 5 to 50 nM
IC50 [10]: 5 to 50 nM

Compound: Cc1nc(F)ccc1Oc1cc(C(F)(F)F)c(Cl)cc1C(=O)Nc1ccc(F)c([S@@](C)(=N)=O)c1 [Example 70A]
IC50 [1]: < 5 nM
IC50 [2]: < 5 nM

Compound: Cc1cc(C#N)ccc1Oc1cc(C(F)(F)F)nnc1C(=O)Nc1cccc(S(C)(=O)=O)c1 [Example 29C, 4-(4-cyano-2-methylphenoxy)-N-(3-(methylsulfonyl)phenyl)-6-(trifluoromethyl)pyridazine-3-carboxamide]
IC50 [7]: > 200 nM
IC50 [8]: > 200 nM

Compound: COc1ccc(Oc2ncc(C(F)(F)F)c(C)c2C(=O)Nc2cccc([S@@](C)(=N)=O)c2)c(C)n1 [Example 116C]
IC50 [7]: 5 to 50 nM
IC50 [8]: 5 to 50 nM

Compound: COc1cc(C#N)ccc1Oc1ncc(-c2ccc(C)cn2)c(C)c1C(=O)Nc1cccc([S@](C)(=N)=O)c1 [Example 22C, (R)-6-(4-cyano-2-methoxyphenoxy)-4,5-dimethyl-N-(3-(S-methylsulfonimidoyl)phenyl)-[2,3-bipyridine]-5-carboxamide]
IC50 [5]: 50 to 100 nM
IC50 [6]: 50 to 100 nM

Compound: Cc1nc(F)ccc1Oc1ncc(C(F)(F)F)c(C)c1C(=O)Nc1ccc(F)c(S(C)(=O)=O)c1 [Example 101C]
IC50 [5]: 5 to 50 nM
IC50 [6]: 5 to 50 nM

Compound: Cc1nc(F)ccc1Oc1ncc(C(F)(F)F)c(C)c1C(=O)Nc1ccnc(C(N)=O)c1 [Example 120C]
IC50 [5]: 5 to 50 nM
IC50 [6]: 5 to 50 nM

Compound: Cc1nc(F)ccc1Oc1cc(C2CC2)c(C(F)(F)F)cc1C(=O)Nc1ccc(F)c([S@](C)(=N)=O)c1 [Example 52A]
IC50 [1]: < 5 nM
IC50 [2]: < 5 nM

Compound: CNCC(=O)N=[S@](C)(=O)c1cccc(NC(=O)c2cc(Cl)c(C(F)(F)F)cc2Oc2ccc(F)nc2C)c1 [Example 29B]
IC50 [9]: < 5 nM
IC50 [10]: < 5 nM

Compound: Cc1nc(F)ccc1Oc1cc(C2CC2)c(C(F)(F)F)cc1C(=O)Nc1ccc(F)c([S@@](C)(=N)=O)c1 [Example 51A]
IC50 [1]: < 5 nM
IC50 [2]: < 5 nM

Compound: Cc1nc(F)ccc1Oc1cc(C(F)(F)F)ccc1C(=O)Nc1cccc([S@@](C)(=O)=NC(=O)CO)c1 [Example 11B, (R)-2-((6-fluoro-2-methylpyridin-3-yl)oxy)-N-(3-(N-(2-hydroxyacetyl)-S-methylsulfonimidoyl)phenyl)-4-(trifluoromethyl)benzamide]
IC50 [9]: 5 to 50 nM
IC50 [10]: 5 to 50 nM

Compound: COc1cc(C#N)ccc1Oc1ncc(-c2ccc(C#N)cc2)c(C)c1C(=O)Nc1cccc([S@](C)(=N)=O)c1 [Example 20C, (R)-2-(4-cyano-2-methoxyphenoxy)-5-(4-cyanophenyl)-4-methyl-N-(3-(S-methylsulfonimidoyl)phenyl)nicotinamide]
IC50 [7]: 5 to 50 nM
IC50 [8]: 5 to 50 nM

Compound: CNCC(=O)N=[S@](C)(=O)c1cccc(NC(=O)c2c(Oc3ccc(F)nc3C)ncc(C(F)(F)F)c2C)c1 [Example 1D, (R)-2-((6-fluoro-2-methylpyridin-3-yl)oxy)-4-methyl-N-(3-(S-methyl-N-(methylglycyl)sulfonimidoyl)phenyl)-5-(trifluoromethyl)nicotinamide]
IC50 [3]: < 5 nM
IC50 [4]: < 5 nM

Compound: Cc1nc(F)ccc1Oc1cc(C(F)(F)F)c(Cl)cc1C(=O)Nc1ccc(F)c([S@@+](C)[O-])c1 [Example 56A]
IC50 [1]: < 5 nM
IC50 [2]: < 5 nM

Compound: Cc1nc(F)ccc1Oc1cc(C(F)(F)F)c(Cl)c(C)c1C(=O)Nc1ccnc([S@](C)(=N)=O)c1 [Example 65A]
IC50 [1]: < 5 nM
IC50 [2]: < 5 nM

The next lines start with the values.

IC50 [3]: < 5 nM
IC50 [4]: < 5 nM
Compound: Cc1nc(F)ccc1Oc1ncc(C(F)(F)F)c(C)c1C(=O)Nc1cccc([S@@](C)(=O)=NC(=O)C2COC2)c1 [Example 6D, (R)-2-((6-fluoro-2-methylpyridin-3-yl)oxy)-4-methyl-N-(3-(S-methyl-N-(oxetane-3-carbonyl)sulfonimidoyl)phenyl)-5-(trifluoromethyl)nicotinamide]

IC50 [7]: 50 to 100 nM
IC50 [8]: 50 to 100 nM
Compound: COc1cc(C#N)ccc1Oc1ncc(-c2cnn(C)c2)c(C)c1C(=O)Nc1cccc([S@](C)(=N)=O)c1 [Example 1C, (R)-2-(4-cyano-2-methoxyphenoxy)-4-methyl-5-(1-methyl-1H-pyrazol-4-yl)-N-(3-(S-methylsulfonimidoyl)phenyl)nicotinamide]

IC50 [7]: > 200 nM
IC50 [8]: > 200 nM
Compound: Cc1nc(F)ccc1Oc1ncc(C(F)(F)F)c(C)c1C(=O)Nc1ccc(C(N)=O)nc1 [Example 111C]

IC50 [1]: 5 to 50 nM
IC50 [2]: 5 to 50 nM
Compound: Cc1nc(F)ccc1Oc1cc(C(F)(F)F)c(Cl)cc1C(=O)Nc1ccnc([S@@](C)(=N)=O)c1 (single isomer, unassigned) [Example 5A]

IC50 [7]: 5 to 50 nM
IC50 [8]: 5 to 50 nM
Compound: Cc1nc(F)ccc1Oc1ncc(C2CCC2)c(C)c1C(=O)Nc1ccnc([S@](C)(=N)=O)c1 [Example 98C]

IC50 [9]: 5 to 50 nM
IC50 [10]: 5 to 50 nM
Compound: Cc1nc(F)ccc1Oc1cc(C(F)(F)F)ccc1C(=O)Nc1cccc([S@@](C)(=O)=NC(=O)[C@H](C)O)c1 [Example 12B, 2-((6-fluoro-2-methylpyridin-3-yl)oxy)-N-(3-((R)—N—((S)-2-hydroxypropanoyl)-S-methylsulfonimidoyl)phenyl)-4-(trifluoromethyl)benzamide]

IC50 [1]: < 5 nM
IC50 [2]: < 5 nM
Compound: Cc1nc(F)ccc1Oc1cc(C(F)(F)F)c(Cl)cc1C(=O)Nc1ccnc(C(N)=O)c1 [Example 72A]

IC50 [7]: 5 to 50 nM
IC50 [8]: 5 to 50 nM
Compound: Cc1nc(F)ccc1Oc1ncc(-c2ccc(F)c(F)c2)c(C)c1C(=O)Nc1cccc(S(C)(=N)=N)c1 [Example 124C]

IC50 [1]: 100 to 200 nM
IC50 [2]: 100 to 200 nM
Compound: C[S@@](=N)(=O)c1cccc(NC(=O)c2c(Oc3ccc(OC(F)(F)F)cc3)cc(C(F)(F)F)c(Cl)c2Oc2ccc(OC(F)(F)F)cc2)c1 [Example 46A]

IC50 [1]: < 5 nM
IC50 [2]: < 5 nM
Compound: Cc1nc(F)ccc1Oc1cc(C(F)(F)F)c(Cl)cc1C(=O)Nc1ccc(F)c([S@+](C)[O-])c1 [Example 55A]

IC50 [3]: < 5 nM
IC50 [4]: < 5 nM
Compound: Cc1nc(F)ccc1Oc1ncc(C(F)(F)F)c(C)c1C(=O)Nc1cccc([S@@](C)(=O)=NC(=O)[C@@H](C)N)c1 [Example 9D, N-(3-((R)—N-(D-alanyl)-S-methylsulfonimidoyl)phenyl)-2-((6-fluoro-2-methylpyridin-3-yl)oxy)-4-methyl-5-(trifluoromethyl)nicotinamide formate]
